From patent US6808724B2, “Artemisolide compound isolated from the aerial parts of Artemisia sylvatica, isolation method, and use thereof” (Korea Research Institute of Bioscience and Biotechnology, priority 2002, dated 2004)

Legend:
Molt-4 cell = test: Leukemia cell growth inhibition, Molt-4; assay type: cell-based; conditions: Homo sapiens, read-out: GI50, the concentration when the cancer cell growth is inhibited by 50%
Procedure: (§1) After removing all medium from the 96-well plate, […] of the new compound was added to each well. After 48 hr of culture, WST-1 was added to each well. Then the culture plate was placed for 3 hr at 37° C. in the presence of 5% CO2. When the reaction was completed, light absorption at 450-690 nm was measured by using an ELISA reader to identify the cancer cell growth inhibition effect.

HL-60 cell = test: Leukemia cell growth inhibition, HL-60; assay type: cell-based; conditions: Homo sapiens, read-out: GI50, the concentration when the cancer cell growth is inhibited by 50%
Procedure: as §1

[1] = test system: SW620 (human colon cancer cell); test: Cell growth inhibition (WST-1), SW620; assay type: cell-based; conditions: SW-620, 48 hr culture, read-out: GI50, the concentration when the cancer cell growth is inhibited by 50%
Procedure: (§2) NIH3T3 (mouse fibroblast), K-ras (K-ras gene transformed NIH3T3 cell), H-ras (H-ras gene transformed NIH3T3 cell) and SW620 (human colon cancer cell) solid tumor cell lines were cultured in 10% of bovine serum albumin or RPMI 1640 medium (containing L-glutamine and not containing sodium bicarbonate; Gibco Cat. No 31800-022) under 37° C. and 5% CO2 condition. The subculture was carried out 2 times a week. The cells were separated from the wall using 0.5% of trypsin and 5.3 mM EDTA (ethylenediamine tetra acetic acid) dissolved in phosphate buffer solution (PBS). In each well of 96-well plate (Falcon), 3×10^3-6×10^3 cells were added and cultured at 37° C. in the presence of 5% CO2 of medium for 24 hr. The new compound was dissolved in dimethyl sulfoxide (DMSO) and diluted to the concentration required for the test. The final concentration of DMSO was set to be lower than 0.5%.
as §1

[2] = test system: NIH3T3 (mouse fibroblast); test: Cell growth inhibition (WST-1), NIH3T3; assay type: cell-based; conditions: 48 hr culture, read-out: GI50, the concentration when the cancer cell growth is inhibited by 50%
Procedure: as §2, §1

mice = test: Toxicity test in mice; assay type: in vivo
Procedure: The compound expressed by the formula 1 was dissolved in dimethyl sulfoxide (DMSO). The solution was diluted with water and administered to mice (10 heads per group) by 100 μg/kg.

[3] = test system: K-ras (K-ras gene transformed NIH3T3 cell); test: Cell growth inhibition (WST-1), K-ras; assay type: cell-based; conditions: Mus musculus, 48 hr culture, read-out: GI50, the concentration when the cancer cell growth is inhibited by 50%
Procedure: as §2, §1

[4] = Physical and chemical properties: solubility in solvents; assay type: physicochemical
Procedure: The structure of the obtained white powder compound was analyzed by NMR. The compound is expressed by Formula 1 (molecular formula=C25H32O4; molecular weight=396.52).

[5] = test system: H-ras (H-ras gene transformed NIH3T3 cell); test: Cell growth inhibition (WST-1), H-ras; assay type: cell-based; conditions: Mus musculus, 48 hr culture, read-out: GI50, the concentration when the cancer cell growth is inhibited by 50%
Procedure: as §2, §1

farnesyl transferase = biological target: T1, farnesyl transferase (Rattus norvegicus, UniProt Q02293+Q04631); test: Farnesyl transferase inhibition, scintillation proximity assay with 3H-FPP and biotin-lamin B peptide; assay type: biochemical
T1 construct: 100-150 g of brain was separated from a male rat (Sprague Dowley); from tissue; host or cells: rat (Sprague Dawley) brain
Procedure: 100-150 g of brain was separated from a male rat (Sprague Dowley). It was washed with a physiological salt solution and homogenized. Then, farnesyl transferase enzymogen was separated by centrifuging and partially purifying the homogenate with a Q Sepharose Fast Flow Column. The enzyme activity was determined by scintillation proximity assay (SPA), using the ^3H-farnesyl pyrophosphate (FPP) substrate.
To be specific, the method of Michael S. Brown, etc. (Yuval Reiss, Joseph L. Goldstein, Miguel C. Seabra, Patrick J. Casey and Michael S. Brown, 1990, Inhibition of Purified p21ras Farnesyl Protein Transferase by Cys-AAX Tetrapeptides, 62, 81-88) was modified a little. 10 μl of the sample liquid, 10 μl of analysis buffer solution (50 mM Tris-HCL pH7.5, 25 mM MgCl2, 2 mM KCl, 5 mM DTT, 5 mM Na2HPO4, 0.01% Triton X-100), 20 μl of diluted ^3H-FPP, 20 μl biotin-lamin B peptide and 40 μl of farnesyl transferase were mixed well and rendered to react for 30 min at room temperature. Then, 150 μl of SPA bead/stop reagent solution was added. The farnesylation level of biotin-lamin B peptide was measured by using a scintillation counter in CPM (counts per minute) unit. The farnesyl transferase activity inhibition was calculated via Equation 1. [formula] […]

C=C1C(=O)O[C@@H]2[C@@H]1CC[C@](C)(O)C13C=CC(C)([C@@H]21)[C@]1(C3)C(=O)C[C@@]2(C(C)C)C[C@H]21 (some centres unmarked) [Formula 1, Artemisolide]
GI50 (Molt-4 cell): 3.2 µM
GI50 (HL-60 cell): ~1.5 µM
GI50 [1]: 2.5 µg/mL
GI50 [2]: ~5.5 µg/mL
acute toxicity in the animal test (mice): no acute toxicity
GI50 [3]: ~0.8 µg/mL
Insoluble in [4]: Hexane
Soluble in [4]: MeOH; acetone; EtOAc
GI50 [5]: 1.2 µg/mL
inhibition at 100 µg/mL (farnesyl transferase; at 100 μg/ml): ~50%
IC50 (farnesyl transferase; read-out: IC50 (concentration for inhibiting activity by 50%) on farnesyl transferase (converted)): ~252 µM
